Test results as given in US6730666B1, “Pharmaceutical compositions comprising porphyrins and some novel porphyrin derivatives” (Yeda Research and Development Co. Ltd., priority 1998, dated 2004).
Entries after “also recorded” stand apart in the source; their conditions may differ. Read-outs that look alike come from different tables or passages of the source.

Assays:
[1] = system: NIH 3T3 cells expressing signal peptide bFGF; assay: Tumor formation induced by signal peptide bFGF expressing NIH 3T3 cells in nude mice; assay type: in vivo, Balb/C nude mice; conditions: free P1, 25 μg/g of body mass IP twice a week, after 4 weeks
Procedure: (v) Inhibition by porphyrins of tumor formation induced by signal peptide bFGF expressing cells NIH 3T3 cells expressing signal peptide bFGF were injected subcutaneously to Balb/C nude mice as described (Yayon and Klagsbrun, 1990). Porphyrin/corrole compound at 25 μg/g of body mass was injected IP (intraperitoneally) twice a week and after 4 weeks the tumor size was measured.
After establishing the ability of P1 to inhibit FGF biological activity in vitro, the capacity of P1 to inhibit bFGF-induced tumor growth and metastasis was evaluated in vivo. First, the inhibition of tumor growth induced by signal peptide bFGF in a nude mice model was measured (Methods, section (v)). Upon addition of a signal peptide residue to bFGF, the protein is capable of transforming NIH 3T3 cells which, when injected to nude mice, grow and form a tumor Rayon & Klagsbrun, 1990). NIH 3T3 cells expressing signal peptide bFGF were injected subcutaneously to Balb/C nude mice, and P1 either free or liposome incorporated (as described by Jori and Reddi, 1993) (25 μg/g of body mass) were given twice a week by intraperitoneal injection.

[2] = system: Lewis lung carcinoma (LLC) D122 cells; assay: Lewis lung carcinoma primary tumor growth (foot pad); assay type: in vivo, C57 black mice; conditions: 25 μg/g of body mass IP twice a week
Procedure: (§1) (vii) Lewis lung carcinoma tumor assay. Murine Lewis lung carcinoma (LLC) D122 cells (1×10^6 cells/[…] PBS) were injected into the foot pads of 10-week old C57 black mice (O'Reilly et al, 1994). Twenty five μg/g of body mass of porphyrin or corrole compound dissolved in PBS were injected IP twice a week to the treated group, and tumor size was measured periodically in order to follow primary tumor formation. In order to evaluate inhibition of lung metastasis by porphyrin or corrole compound, the primary tumors were allowed to develop over a period of six weeks to a volume of approximately 8 mm^3; after which the tumors were removed and metastases were allowed to develop for four weeks. During this time the treated group received 25 μg/g of body mass of porphyrin or corrole compound IP twice a week. Subsequently the mice were sacrificed, dissected and the lungs removed and photographed. The extent of lung metastasis was measured by weighing the lungs.
Inhibition of primary tumor growth was tested using the well-established LLC murine tumor growth and metastasis model (Methods, section (vii)). LLC D122 cells (200,000 cells per mouse) were injected into the foot pads of 10-week old C57 black mice. […] The inhibition of the foot pad primary carcinoma tumor growth was statistically established and reproducible in five experiments.

[3] = system: Lewis lung carcinoma (LLC) lung metastasis; assay: Lewis lung carcinoma lung metastasis model; assay type: in vivo, C57 black mice; design: Inhibitory activity in vivo, LLC tumor model (as % of total inhibition): reference not given here; conditions: for Inhibitory activity in vivo, LLC tumor model (as % of total inhibition): 25 μg/gram, LLC murine tumor model, lung metastasis
Procedure: as §1
After establishing the capacity of P1 to inhibit primary tumor growth, the capacity of P1 to inhibit lung metastasis formation was measured as described in Methods, section (vi). Mice were injected with LLC cells (200,000 cells per mouse) into the foot pad and primary tumors were allowed to develop over a period of 3 to 4 weeks to a volume of approximately 8 mm^3. Subsequently, primary tumors were removed through amputation and lung metasases were allowed to develop for four weeks before the mice were sacrificed. The extent of lung metastasis at this point was examined by gross morphological examination and by determining the gain in lung weight. […] In order to quantitate the results from these experiments, the lungs from all mice were weighed and evaluated for the extent of metastatic growth.

VEGF receptor KDR = molecular target: T1, VEGF receptor KDR (Homo sapiens, UniProt P35968); assay: Binding of 125I-VEGF to endothelial cells transfected with VEGF receptor KDR; design: species or system bovine; conditions: FIG. 10A
T1 construct: expressed in transfected cells; host or cells: bovine aortic endothelial cells
T1 sequence (P35968 20-1356): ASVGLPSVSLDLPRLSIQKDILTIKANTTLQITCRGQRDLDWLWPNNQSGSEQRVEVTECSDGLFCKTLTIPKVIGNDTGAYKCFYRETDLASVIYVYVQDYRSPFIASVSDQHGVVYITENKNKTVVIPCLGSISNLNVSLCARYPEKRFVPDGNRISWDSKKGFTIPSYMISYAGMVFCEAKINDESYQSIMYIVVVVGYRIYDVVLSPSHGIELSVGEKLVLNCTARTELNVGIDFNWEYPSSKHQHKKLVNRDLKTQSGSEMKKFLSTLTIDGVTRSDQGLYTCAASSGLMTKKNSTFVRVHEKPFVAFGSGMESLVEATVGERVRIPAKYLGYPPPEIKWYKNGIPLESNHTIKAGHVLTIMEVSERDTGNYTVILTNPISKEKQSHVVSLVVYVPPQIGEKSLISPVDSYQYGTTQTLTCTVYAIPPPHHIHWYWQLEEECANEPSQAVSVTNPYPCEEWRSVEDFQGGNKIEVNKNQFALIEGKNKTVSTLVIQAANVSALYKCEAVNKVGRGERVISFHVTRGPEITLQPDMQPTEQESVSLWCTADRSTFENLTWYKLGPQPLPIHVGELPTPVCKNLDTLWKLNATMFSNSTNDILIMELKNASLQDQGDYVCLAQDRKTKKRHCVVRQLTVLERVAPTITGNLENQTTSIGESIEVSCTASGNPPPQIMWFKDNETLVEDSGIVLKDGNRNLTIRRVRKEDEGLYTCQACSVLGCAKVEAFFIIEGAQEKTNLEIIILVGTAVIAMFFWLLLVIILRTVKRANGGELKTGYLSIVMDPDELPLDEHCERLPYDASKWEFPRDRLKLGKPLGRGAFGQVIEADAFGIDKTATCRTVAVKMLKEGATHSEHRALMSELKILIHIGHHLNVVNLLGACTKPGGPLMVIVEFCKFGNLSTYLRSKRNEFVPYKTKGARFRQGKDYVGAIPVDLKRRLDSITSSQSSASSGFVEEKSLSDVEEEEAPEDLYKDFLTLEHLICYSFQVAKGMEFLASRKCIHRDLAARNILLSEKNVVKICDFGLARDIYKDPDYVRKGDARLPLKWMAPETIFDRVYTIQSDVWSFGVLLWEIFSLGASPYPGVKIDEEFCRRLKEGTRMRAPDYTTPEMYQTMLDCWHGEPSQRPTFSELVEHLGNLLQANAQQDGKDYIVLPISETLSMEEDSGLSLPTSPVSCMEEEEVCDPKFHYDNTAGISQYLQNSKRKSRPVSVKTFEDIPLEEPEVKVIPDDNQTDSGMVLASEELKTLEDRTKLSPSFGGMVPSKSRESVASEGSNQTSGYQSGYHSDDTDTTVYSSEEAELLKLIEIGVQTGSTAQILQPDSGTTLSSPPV
Procedure: Binding of ^125I-VEGF to confluent monolayers of endothelial cells expressing KDR was performed as described in Methods, section (x), in the presence of increasing concentrations of P1 and of unlabeled VEGF; and
x) Binding of ^125I-VEGF to cells. Confluent cultures of bovine aortic endothelial cells transfected with the VEGF receptor KDR were tested for binding of radiolabeled ^125I-VEGF as described in method (iv) above for the FGFR-1 expressing cells.

[4] = system: FGFR-3 expressing CHO cells; assay: FGF-9 induced mitogenic activity (DNA synthesis) of FGFR-3 expressing CHO cells; assay type: cell-based; conditions: FIG. 13
Procedure: CHO cells genetically engineered to express FGFR-3 were grown in the presence of increasing concentrations of porphyrins P1 and P16 in order to determine the ability of the porphyrins to inhibit FGF-9 induced DNA synthesis.
CHO cells genetically engineered to express FGFR-3 were used in order to determine the ability of the porphyrins P1 and P16 to inhibit biological activity of FGFR3 as measured by the level of DNA synthesis induced by FGF-9.

smooth muscle cells = assay: Smooth muscle cell proliferation induced by bFGF; assay type: cell-based; conditions: 2 μg/ml or 20 μg/ml of P1; bFGF 10 ng/ml; FIG. 16
Procedure: In order to determine the ability of P1 to inhibit the biological activity of bFGF on cell proliferation, smooth muscle cells were grown in 24-well plates in the presence of bFGF (10 ng/ml) and in the presence of 2 μg/ml or 20 μg/ml of P1. Cell number was determined daily by counting cell samples under a microscope.

FGFR-1 = FGFR-1 (Mus musculus, UniProt P16092); assay: Binding of 125I-bFGF to CHO cells expressing FGFR-1
Chain of FGFR-1 (P16092 22-822): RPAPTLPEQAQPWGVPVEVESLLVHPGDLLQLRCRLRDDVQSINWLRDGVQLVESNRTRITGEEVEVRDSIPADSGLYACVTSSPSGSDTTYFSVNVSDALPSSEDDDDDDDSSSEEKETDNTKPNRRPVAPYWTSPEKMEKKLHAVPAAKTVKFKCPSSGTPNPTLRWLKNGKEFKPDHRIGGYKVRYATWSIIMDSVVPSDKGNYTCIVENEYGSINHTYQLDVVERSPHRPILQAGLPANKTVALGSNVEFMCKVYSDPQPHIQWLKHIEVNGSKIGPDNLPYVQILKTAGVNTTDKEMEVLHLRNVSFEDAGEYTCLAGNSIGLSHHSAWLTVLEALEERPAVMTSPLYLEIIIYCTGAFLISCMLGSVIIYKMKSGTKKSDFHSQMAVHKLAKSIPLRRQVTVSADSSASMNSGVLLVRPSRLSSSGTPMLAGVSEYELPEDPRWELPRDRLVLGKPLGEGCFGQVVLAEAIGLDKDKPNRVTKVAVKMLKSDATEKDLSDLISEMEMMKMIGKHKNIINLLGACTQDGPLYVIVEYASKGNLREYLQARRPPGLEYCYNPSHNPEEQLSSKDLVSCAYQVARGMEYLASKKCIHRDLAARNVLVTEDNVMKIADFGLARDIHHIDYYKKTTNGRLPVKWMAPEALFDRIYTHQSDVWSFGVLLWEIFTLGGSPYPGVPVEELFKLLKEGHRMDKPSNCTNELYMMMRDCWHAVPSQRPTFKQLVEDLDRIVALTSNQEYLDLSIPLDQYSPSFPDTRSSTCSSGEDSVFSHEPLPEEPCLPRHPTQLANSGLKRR
Procedure: The binding medium was discarded and the cells were washed once with ice-cold DMEM/BSA and twice with cold PBS (pH 7.5) containing 1.6M NaCl. […] Non-specific binding was determined in the presence of a 100-fold excess of unlabeled bFGF.
First we utilized a cell-free system, measuring the binding of radiolabeled bFGF to a dimeric soluble FGFR-1 fused to alkaline phosphatase. The soluble FRAP was immobilized using an anti-alkaline phosphatase antibody prebound to agarose-protein A beads (see Methods, section (iii)). As a: second experimental model, we used CHO cells deficient in heparan sulfate and genetically engineered to express FGFR-1 (Methods, section (iv)).

soluble FGFR-1 (FRAP) = molecular target: T2, soluble FGFR-1 (FRAP) (Mus musculus, UniProt P16092); assay: Binding of 125I-bFGF to immobilized soluble FGFR-1 (FRAP), cell-free
T2 sequence (P16092 22-376 limits assumed): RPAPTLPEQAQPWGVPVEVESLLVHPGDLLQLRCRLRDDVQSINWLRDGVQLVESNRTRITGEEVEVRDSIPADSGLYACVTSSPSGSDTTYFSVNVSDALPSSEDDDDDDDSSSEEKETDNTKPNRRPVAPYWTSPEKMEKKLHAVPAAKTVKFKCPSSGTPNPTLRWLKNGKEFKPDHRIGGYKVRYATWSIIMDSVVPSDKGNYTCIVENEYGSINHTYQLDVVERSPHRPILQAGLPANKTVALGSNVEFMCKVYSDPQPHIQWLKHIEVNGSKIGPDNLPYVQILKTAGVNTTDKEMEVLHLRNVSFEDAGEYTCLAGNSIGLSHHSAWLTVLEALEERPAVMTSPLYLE
Source text: First we utilized a cell-free system, measuring the binding of radiolabeled bFGF to a dimeric soluble FGFR-1 fused to alkaline phosphatase. […] As a: second experimental model, we used CHO cells deficient in heparan sulfate and genetically engineered to express FGFR-1 (Methods, section (iv)).

FGF receptor = FGF receptor (Mus musculus, UniProt P16092); assay: In vitro inhibition of bFGF binding (assay format not stated); conditions: inhibition of bFGF binding
Chain of FGF receptor (P16092 22-822): as the sequence (P16092 22-822) above

SMILES | Inhibition of tumor formation in nude mice, in words [1] | Inhibition of primary tumor growth in LLC model, in words [2] | Inhibition of lung metastasis in LLC model, in words ([3]; 25 μg/g of body mass IP) | Inhibitory activity in vivo, LLC tumor model (as % of total inhibition) [3] [%] | Lung weight ([3]; P1 25 μg/g of body mass, FIG. 7) | Inhibition of 125I-VEGF binding to KDR/flk-1 expressing cells, in words (VEGF receptor KDR) | Effect on cell proliferation induced by FGF-9 [4] | Effect on smooth muscle cell proliferation induced by bFGF (smooth muscle cells) | IC50 (FGFR-1; Cellular receptor binding (IC50), binding of FGF to FGFR, Methods section (iv)) [nM] | IC50 (FGFR-1; IC50, bFGF binding in the cellular receptor system, FIG. 1C) [nM] | IC50 (soluble FGFR-1 (FRAP); IC50, bFGF-FGFR1 binding in the soluble receptor (FRAP) assay, FIG. 1B) [nM] | IC50 (soluble FGFR-1 (FRAP); Soluble receptor binding (IC50), binding of FGF to FGFR, Methods section (iii)) [nM] | Activity in vitro relative to P1 (fold) (FGF receptor) | IC50 (FGFR-1; read-out: Cellular receptor binding (IC50), binding of FGF to FGFR, Methods section (iv)) [nM] | IC50 (soluble FGFR-1 (FRAP); read-out: Soluble receptor binding (IC50), binding of FGF to FGFR, Methods section (iii)) [nM]
C[n+]1ccc(-c2c3nc(c(-c4cc[n+](C)cc4)c4ccc([nH]4)c(-c4cc[n+](C)cc4)c4nc(c(-c5cc[n+](C)cc5)c5ccc2[nH]5)C=C4)C=C3)cc1 [Compound P1, 5,10,15,20-Tetrakis(N-methyl-4-pyridylium)-21H,23H-porphine tetra-p-tosylate] | clear inhibition of tumor formation | marked inhibition in primary tumor growth | no metastatic phenotype; also recorded: nearly total inhibition of the metastatic phenotype | 100 | around 200 mg | efficiently inhibits | strong inhibitory effect | strong inhibitory effect | 1500 | ~2500 | ~1000 | 750 | – | – | –
C[n+]1ccc(-c2c3nc(c(-c4cc[n+](C)cc4)c4ccc([nH]4)c(-c4c(F)c(F)c(F)c(F)c4F)c4nc(c(-c5cc[n+](C)cc5)c5ccc2[nH]5)C=C4)C=C3)cc1.[I-].[I-].[I-] [Compound P16, 5-Pentafluorophenyl-10,15,20-tris(N-methyl-4-pyridylium)-21H,23H-porphine triiodide] | – | – | – | 60 | – | – | strong inhibitory effect | – | – | – | – | – | about 50 fold | 20 | 10
